According to US12558428B2, “Heterobifunctional compounds and their use in treating disease” (Halda Therapeutics OpCo, Inc., priority 2024, dated 2026):
Read-outs that look alike come from different tables or passages of the source.

How the values were obtained:
Format in all cases: cell-based
[1] = system: T-Rex 293 cells having increased expression of estrogen receptor alpha protein; assay: Cellular growth inhibition assay, T-Rex 293 cells, (+) doxycycline; conditions: T-Rex 293 cells with doxycycline (increased ERα expression), 72 hours, CellTiter-Glo, read-out: (+) Dox GI50
Method in brief: (§1)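 Viability read-out was CellTiter-Glo 2.0 luminescence after 72 h compound exposure, normalized to zero luminescence and fitted by four-parameter regression to give GI50. Cells were an ERα-inducible T-Rex 293 clone cultured with or without 3 ng/mL doxycycline in charcoal-stripped, phenol red-free medium.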

[2] = system: T-Rex 293 cells lacking increased expression of estrogen receptor alpha protein; assay: Cellular growth inhibition assay, T-Rex 293 cells, (−) doxycycline; conditions: T-Rex 293 cells without doxycycline (lacking increased ERα expression), 72 hours, CellTiter-Glo, read-out: (−) Dox GI50
Method in brief: as §1

[3] = system: MCF7 cells (ATCC #HTB-22); assay: Cellular growth inhibition assay, MCF7 cells purchased from ATCC; conditions: Table 8-A, MCF7 cells purchased from ATCC, six days, CellTiter-Glo, read-out: GI50
Method in brief: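 MCF7 cells in RPMI 1640 with 10% FBS and 0.2 U/ml insulin, seeded at 1,500 cells/well (ATCC) or 225 cells/well (ECACC). Compounds added 24 h later, then 6 days at 37° C. Viability by CellTiter-Glo 2.0 luminescence. GI50 from four-parameter fit.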

Compound	GI50 ([3]; Homo sapiens, MCF7, 144 h)	GI50 [3]	GI50 ([1]; T-REx-293, 72 h, Table 7-A)	GI50 ([2]; T-REx-293, 72 h, Table 7-A)	GI50 ([1]; Table 7-A)	GI50 ([2]; Table 7-A)	GI50 ([1]; T-REx-293, 72 h, Table 7-B)	GI50 ([2]; T-REx-293, 72 h, Table 7-B)
Cc1sc2c(c1C)C(c1ccc(N3CC(CN4CCN(CC5CN(c6ccc(C7=C(c8ccccc8Cl)CCCc8cc(C(=O)O)ccc87)cc6)C5)CC4)C3)cc1)=N[C@@H](C)c1nnc(C)n1-2 [IV-54]	< 0.05 µM	–	< 0.05 µM	0.05 to 0.5 µM	–	–	–	–
Cc1sc2c(c1C)C(c1ccc(N3CC(CC4(O)CN(CC5CN(c6ccc(C7=C(c8ccccc8)CCCc8cc(C(=O)O)ccc87)cc6)C5)C4)C3)cc1)=N[C@@H](C)c1nnc(C)n1-2 [IV-42]	< 0.05 µM	–	< 0.05 µM	0.05 to 0.5 µM	–	–	–	–
Cc1sc2c(c1C)C(c1ccc(N3CCN(CC4CCN(c5ccc([C@@H]6c7ccc(O)cc7CC[C@@H]6c6ccccc6)cc5)CC4)CC3)cc1)=N[C@@H](CC(=O)O)c1nnc(C)n1-2 [III-81]	0.05 to 0.5 µM	–	0.05 to 0.5 µM	> 2.5 µM	–	–	–	–
Cc1sc2c(c1C)C(c1ccc(N3CCC(O)(CN4CCN(c5ccc(C6=C(c7ccc(F)cc7F)CCCc7cc(C(=O)O)ccc76)cc5)CC4)CC3)cc1)=N[C@@H](C)c1nnc(C)n1-2 [IV-26]	< 0.05 µM	–	< 0.05 µM	0.5 to 2.5 µM	–	–	–	–
Cc1sc2c(c1C)C(c1ccc(N3CCC(O)(CC4CCN(c5ccc([C@@H]6c7ccc(O)cc7CC[C@@H]6c6ccccc6)cc5)CC4)CC3)cc1)=N[C@@H](Cc1ncco1)c1nnc(C)n1-2 [III-155]	< 0.05 µM	–	< 0.05 µM	0.05 to 0.5 µM	–	–	–	–
Cc1sc2c(c1C)C(c1ccc(N3CCC(O)(CC4CCN(c5ccc([C@@H]6c7ccc(B(O)O)cc7CC[C@@H]6c6ccccc6)cc5)CC4)CC3)cc1)=N[C@@H](C)c1nnc(C)n1-2 [III-264]	< 0.05 µM	–	< 0.05 µM	0.5 to 2.5 µM	–	–	–	–
Cc1sc2c(c1C)C(c1ccc(C#CC3CC4(CCN(c5ccc([C@H]6c7ccc(O)cc7CC[C@H]6c6ccccc6)cc5)CC4)C3)cc1)=N[C@H](Cc1ncco1)c1nnc(C)n1-2 [III-20]	> 2.5 µM	–	> 2.5 µM	> 2.5 µM	–	–	–	–
Cc1sc2c(c1C)C(c1ccc(N3CCC(O)(CN4CCN(c5ccc(C6=C(c7ccccc7Cl)CCCc7cc(C(=O)O)ccc76)cc5)CC4)CC3)c(Cl)c1)=N[C@@H](C)c1nnc(C)n1-2 [IV-61]	< 0.05 µM	–	< 0.05 µM	0.5 to 2.5 µM	–	–	–	–
Cc1cc(N2CCC(O)(CN3CCN(c4cc(F)c([C@@H]5c6ccc(O)cc6CC[C@@H]5c5ccccc5)cc4F)CC3)CC2)ccc1Oc1ccc(C(C)(C)O)cc1-c1cn(C)c(=O)c2[nH]ccc12 [V-37]	< 0.05 µM	–	–	–	–	–	< 0.05 µM	0.5 to 2.5 µM
Cc1cc(C2=N[C@@H](C)c3nnc(C)n3-c3sc(C)c(C)c32)ccc1N1CC(CN2CCN(CC3CN(c4ccc(C5=C(c6ccc(Cl)cc6)CCCc6cc(C(=O)O)ccc65)cc4)C3)CC2)C1 [IV-64]	< 0.05 µM	–	0.05 to 0.5 µM	0.5 to 2.5 µM	–	–	–	–
Cc1sc2c(c1C)C(c1ccc(N3CCC(CN4CCN(c5ccc([C@@H]6c7ccc(O)cc7CC[C@@H]6c6ccccc6)cc5)CC4)CC3)cc1)=N[C@H](Cc1ncco1)c1nnc(C)n1-2 [III-74]	0.05 to 0.5 µM	–	< 0.05 µM	0.05 to 0.5 µM	–	–	–	–

More lines, main results first:

GI50 ([3]; Homo sapiens, MCF7, 144 h)	GI50 [3]	Compound	GI50 ([1]; T-REx-293, 72 h, Table 7-A)	GI50 ([2]; T-REx-293, 72 h, Table 7-A)	GI50 ([1]; Table 7-A)	GI50 ([2]; Table 7-A)	GI50 ([1]; T-REx-293, 72 h, Table 7-B)	GI50 ([2]; T-REx-293, 72 h, Table 7-B)
0.5 to 2.5 µM	–	Cc1sc2c(c1C)C(c1ccc(N3CCC(F)(CN4CCC(c5ccc([C@@H]6c7ccc(O)cc7CC[C@@H]6c6ccccc6)cc5)CC4)CC3)cc1)=N[C@@H](C)c1nnc(C)n1-2 [III-144]	0.05 to 0.5 µM	> 2.5 µM	–	–	–	–
< 0.05 µM	–	COc1cc(N2CCN(CC3(O)CCN(c4ccc(C5=N[C@@H](C)c6nnc(C)n6-c6sc(C)c(C)c65)cc4)CC3)CC2)c(F)cc1[C@@H]1c2ccc(O)cc2CC[C@@H]1c1ccccc1 (single isomer, unassigned) [III-311]	< 0.05 µM	0.5 to 2.5 µM	–	–	–	–
0.05 to 0.5 µM	–	Cc1sc2c(c1C)C(c1ccc(N3CCN(CCOc4ccc([C@@H]5c6ccc(O)cc6CC[C@@H]5c5ccccc5)cc4)CC3)cc1)=N[C@@H](C)c1nnc(C)n1-2 [III-16]	0.05 to 0.5 µM	0.05 to 0.5 µM	–	–	–	–
0.05 to 0.5 µM	–	Cc1sc2c(c1C)C(c1ccc(N3CCC(O)(CN4CCN(c5ccc([C@H]6c7ccc(O)cc7CC[C@H]6c6cc(F)ccc6F)c(F)c5)CC4)CC3)cc1)=N[C@@H](C)c1nnc(C)n1-2 [III-273]	0.05 to 0.5 µM	0.05 to 0.5 µM	–	–	–	–
0.05 to 0.5 µM	–	Cc1sc2c(c1C)C(c1ccc(N3CCC(O)(CN4CCN(c5cc(F)c([C@H]6c7ccc(O)cc7CC[C@H]6c6ccccc6)cc5F)CC4)CC3)cc1)=N[C@@H](C)c1nnc(C)n1-2 [III-247]	< 0.05 µM	0.05 to 0.5 µM	–	–	–	–
0.05 to 0.5 µM	–	Cc1sc2c(c1C)C(c1ccc(CN3CC4(CCN(c5ccc([C@@H]6c7ccc(O)cc7CC[C@@H]6c6ccccc6)cc5)CC4)C3)cc1)=N[C@@H](C)c1nnc(C)n1-2 [III-107]	0.05 to 0.5 µM	0.5 to 2.5 µM	–	–	–	–
< 0.05 µM	–	Cc1sc2c(c1C)C(c1ccc(N3CC4(CCC(O)(CN5CCC(c6ccc([C@@H]7c8ccc(O)cc8CC[C@@H]7c7ccccc7)cc6)CC5)CC4)C3)cc1)=N[C@@H](C)c1nnc(C)n1-2 [III-206]	< 0.05 µM	0.5 to 2.5 µM	–	–	–	–
0.05 to 0.5 µM	–	Cc1sc2c(c1C)C(c1ccc(N3CCC(CN4CCN(c5ccc([C@H]6c7ccc(O)cc7CC[C@H]6c6ccccc6)cc5)CC4)CC3)cc1)=N[C@@H](C)c1nnc(C)n1-2 [III-6]	0.05 to 0.5 µM	0.5 to 2.5 µM	–	–	–	–
< 0.05 µM	–	Cc1sc2c(c1C)C(c1ccc(N3CC4(CC(CN5CCN(c6ccc([C@@H]7c8ccc(O)cc8CC[C@@H]7c7ccc(F)cc7)cc6F)CC5)C4)C3)cc1)=N[C@@H](C)c1nnc(C)n1-2 [III-282]	< 0.05 µM	0.05 to 0.5 µM	–	–	–	–
0.05 to 0.5 µM	–	Cc1sc2c(c1C)C(c1ccc(N3CCC(CN4CCC(c5ccc([C@@H]6c7ccc(O)cc7CC[C@@H]6c6ccccc6)cc5)CC4)CC3)cc1)=N[C@@H](C)c1nnc(C)n1-2 [III-132]	0.05 to 0.5 µM	0.5 to 2.5 µM	–	–	–	–
< 0.05 µM	–	Cc1sc2c(c1C)C(c1ccc(OCCOCCCN3CC(Nc4ccc([C@@H]5c6ccc7n[nH]cc7c6C[C@@H](C)N5CC(F)(F)F)nc4)C3)cc1)=N[C@@H](C)c1nnc(C)n1-2 [I-57]	< 0.05 µM	0.5 to 2.5 µM	–	–	–	–
0.05 to 0.5 µM	–	CC1=C(c2c(F)cc(F)cc2F)[C@@H](c2ccc(N3CC(CN4CCN(CC5CN(c6ccc(C7=N[C@@H](C)c8nnc(C)n8-c8sc(C)c(C)c87)cc6)C5)CC4)C3)cc2)Oc2ccc(O)cc21 [V-36]	< 0.05 µM	0.5 to 2.5 µM	–	–	–	–
–	0.05 to 0.5 µM	Cc1sc2c(c1C)C(c1ccc(NCCN3CCN(CCOc4ccc([C@@H]5c6ccc(O)cc6CC[C@@H]5c5ccccc5)cc4)CC3)cc1)=NC(Cc1ncco1)c1nnc(C)n1-2 (stereo partly drawn) [III-32]	–	–	< 0.05 µM	0.05 to 0.5 µM	–	–
0.05 to 0.5 µM	–	Cc1sc2c(c1C)C(c1ccc(N[C@H]3CC[C@H](NCCOc4ccc([C@@H]5c6ccc(O)cc6CC[C@@H]5c5ccccc5)cc4)CC3)cc1)=NC(Cc1ncco1)c1nnc(C)n1-2 (stereo partly drawn) [III-58]	< 0.05 µM	0.05 to 0.5 µM	–	–	–	–
0.05 to 0.5 µM	–	Cc1sc2c(c1C)C(c1ccc(N3CCC(O)(CN4CCN(c5ccc([C@H]6c7ccc(O)cc7CC[C@H]6c6ccc(F)cc6)cc5)CC4)CC3)cc1)=N[C@@H](C)c1nnc(C)n1-2 [III-184]	< 0.05 µM	0.05 to 0.5 µM	–	–	–	–
< 0.05 µM	–	Cc1sc2c(c1C)C(c1ccc(N3CC(CC4(O)CCN(c5ccc([C@@H]6c7ccc(O)cc7CC[C@@H]6c6ccccc6)cc5)CC4)C3)cc1)=N[C@@H](C)c1nnc(C)n1-2 [III-158]	< 0.05 µM	0.05 to 0.5 µM	–	–	–	–
